Experiment: gradient 5% acetonitrile 3 min, to 50% in 2 min, to 85% in 15 min, held 3 min, 100 µL/min
Settings: column: Zorbax Extend-C18 2.1 x 50 mm; eluents: water / acetonitrile, 0.1% formic acid
In short: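 Retention times of pure standards were taken from adduct peaks that were selected by computer and manually inspected. Over 3 months, mixtures of ~100 molecules were run by HPLC–quadrupole time-of-flight mass spectrometry in positive and negative ionization mode. The Zorbax Extend-C18 column (2.1 × 50 mm, 1.8 μm) ran at 100 μL/min in water and acetonitrile, each containing 0.1% formic acid, with 40 μL dead volume and 900 μL dwell volume.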

Going from `O=C(NCCN1CCN(c2ccc(F)cc2)CC1)C(=O)NCc1ccc(F)cc1` to `COc1ccc(-c2cc3n(n2)CCCN(C(=O)CCC(=O)c2ccc(F)cc2)C3)cc1`, the RP-LC retention time rises from 588 s to 879 s.

Compared with `CC(O)CNC(=O)C1CCN(c2ccc(Sc3ccc(C(C)C)cc3)nn2)CC1` (centres undefined), `COCc1c(C(=O)O)nnn1-c1ccc(C(C)C)cc1` is higher in RP-LC retention time: 704 s for the first, 825 s for the second.

Compared with `CN1CCN2c3ncccc3Cc3ccccc3[C@@H]2C1`, `O=C(c1ccccn1)N1CCN(c2cc(-c3cccs3)[nH]n2)CC1` is higher in RP-LC retention time: 647 s for the first, 648 s for the second.

First: CCOc1ccccc1N1CCN(C(=O)C2CCN(c3nccc4c(C)nn(CC)c34)CC2)CC1
Second: CCCN1CCN(C(=O)C2CCN(c3nc4cccnc4s3)CC2)CC1
The RP-LC retention time of the first is higher: 719 s for the first, 574 s for the second.

Going from `Cc1ccc(S(=O)(=O)n2c(N)nc3ccccc32)cc1` to `O=C(O)c1cccc2c1CCN2S(=O)(=O)c1ccccc1`, the RP-LC retention time falls from 825 s to 793 s.

First: COc1cccc(CNC2=NCCNC23CCN(S(=O)(=O)c2ccc(C)cc2C)CC3)c1
Second: COc1cccc(-c2nc(C3CCN(S(=O)(=O)c4ccc(Cl)cc4)CC3)no2)c1
The RP-LC retention time of the first is lower: 747 s for the first, 1170 s for the second.

Going from `CN1CCN(c2nc(Nc3ccc4c(c3)OCO4)c3cnn(-c4ccccc4)c3n2)CC1` to `O=c1ccn(-c2ccccc2)nc1-c1nc(-c2ccc3c(c2)OCO3)no1`, the RP-LC retention time rises from 701 s to 835 s.

Going from `Cc1nc2cc(-c3noc(-c4cc(F)ccc4F)n3)ccc2o1` to `CCCC(=O)Nc1ccc(-c2nc(-c3ccc(Cl)cc3)no2)cc1`, the RP-LC retention time rises from 1070 s to 1240 s.

Compared with `O=S(=O)(Cc1cccc(Cl)c1)NCC1CCN(Cc2ccco2)CC1`, `O=C(NCCc1cccs1)C1CCN(Cc2cc3ccccc3n2Cc2ccc(Cl)cc2)CC1` is higher in RP-LC retention time: 573 s for the first, 846 s for the second.

First: C=CCN1C(=O)COc2ccc(-c3nc(NC(=O)c4ccc(C)cc4)sc3C)cc21
Second: CC(C)NC(=O)CN1C(=O)COc2ccc(C(=O)NC3CCCC3)cc21
The RP-LC retention time of the first is higher: 1100 s for the first, 712 s for the second.

First: CCCn1c(CCNC(=O)c2ccccc2F)nc2cccnc21
Second: O=C(Nc1ccccc1F)C(=O)c1ccc[nH]1
The RP-LC retention time of the first is lower: 644 s for the first, 858 s for the second.

First: CCOc1ccc(-c2cc3c(=O)n(Cc4nc(-c5ccccc5Br)no4)ncn3n2)cc1
Second: CC(C)c1ccc(-n2ncc3c(=O)n(Cc4nc(-c5ccc(Cl)cc5)no4)cnc32)cc1
The RP-LC retention time of the first is lower: 1160 s for the first, 1320 s for the second.

Going from `CCOC(=O)c1ccc(N2C=C(C#N)S(=O)(=O)c3cc(F)ccc32)cc1` to `Cc1ccc(N2CC(NC(=O)C(=O)c3c[nH]c4ccccc34)CC2=O)cc1` (centres undefined), the RP-LC retention time falls from 907 s to 823 s.

Going from `Cc1cccn2cc(C(=O)NCc3ccc(N(C)C)cc3)nc12` to `Cc1cccc(Nc2c(-c3ccc(N(C)C)cc3)nc3ncccn23)c1`, the RP-LC retention time rises from 565 s to 745 s.

Compared with `COc1cc(=O)n2c(c1C(=O)NC1CCCCCCC1)CCCC2`, `COC(=O)c1ncn2c1C(=O)N(c1ccc(C)c(C)c1)C(C)(C(=O)NC1CCCC1)C2` (centres undefined) is higher in RP-LC retention time: 734 s for the first, 750 s for the second.

Going from `COc1ccc(C(C)NC(=O)c2cc(NC(C)=O)cc3nc(C)ccc23)cc1OC` (centres undefined) to `COc1ccc(C(=O)N2CCN(c3cc(-c4cccs4)[nH]n3)CC2)cc1OC`, the RP-LC retention time rises from 599 s to 741 s.

Going from `CCC(C)NC(=O)Cn1c(=O)c2cnc(-c3ccc(Cl)cc3)nc2n(CC)c1=O` (centres undefined) to `CCCNC(=O)C1CCCN(c2nc3ncn(CC(=O)Nc4ccccc4Cl)c(=O)c3s2)C1` (centres undefined), the RP-LC retention time falls from 740 s to 738 s.

Compared with `CCCN1CCN(C(=O)CCc2c(C)c(C(=O)OCC)n(C)c2C)CC1`, `CCCCN1CCN(C(=O)COc2ccc(NC(=O)C3CC3)cn2)CC1` is lower in RP-LC retention time: 641 s for the first, 570 s for the second.

First: O=C(NCC(O)C1CCCCC1)c1cccc(C(F)(F)F)c1 (centres undefined)
Second: CCC(C)C(=O)NC1CCN(C2=NS(=O)(=O)C(c3ccccc3)=C2C)CC1 (centres undefined)
The RP-LC retention time of the first is higher: 840 s for the first, 752 s for the second.

Compared with `CCN(CC)S(=O)(=O)c1cc(-c2nnc(-c3ccccc3Cl)o2)ccc1OC`, `O=S(=O)(c1cccc(-c2nnc(-c3ccc(F)cc3)o2)c1)N1CCCCC1` is higher in RP-LC retention time: 1040 s for the first, 1080 s for the second.

First: CCOc1ccc(N2CC(C)Cn3c2nc2c3c(=O)n(C)c(=O)n2C)cc1 (centres undefined)
Second: CCOC(=O)C1CCN(Cc2cn3c(-c4ccc(OC)cc4)nnc3s2)CC1
The RP-LC retention time of the first is higher: 831 s for the first, 563 s for the second.

First: Cn1nc(C(=O)N2CCCC(C(=O)NC3CC3)C2)c2c1CCN(C(=O)c1c(F)cccc1F)C2 (centres undefined)
Second: CCN(Cc1ccccc1)C(=O)CN1C(=O)C2CCCCN2c2ccc(C(=O)N3CCCC3)cc21 (centres undefined)
The RP-LC retention time of the first is lower: 660 s for the first, 892 s for the second.

Compared with `Cc1ccn2cc(-c3ccc(NS(=O)(=O)c4ccc5ccccc5c4)cc3)nc2n1`, `CN(C)c1ccc(-c2nnc3sc(-c4ccc5ccccc5n4)nn23)cc1` is higher in RP-LC retention time: 690 s for the first, 1360 s for the second.

Compared with `O=S(=O)(c1ccc(-c2nnc(C3CCCC3)o2)o1)N1CCCCC1`, `CNc1nccc(N2CCC(CC(=O)N3CCCCCC3)CC2)n1` is lower in RP-LC retention time: 1010 s for the first, 539 s for the second.

First: CSc1ccc(CNC(=O)Cn2c(C)cc(-c3nnc(C4CC4)o3)c2C)cc1
Second: Cc1ccc(CNC(=O)c2c(C)sc3ncnc(N4CCCCC4)c23)cc1
The RP-LC retention time of the first is lower: 816 s for the first, 1070 s for the second.

Compared with `COc1ccc(CCC(=O)N2CCC3(C2)C(=O)Nc2ccc(OC)cc23)cc1` (centres undefined), `COc1ccc(-c2nnc3n2CCN(Cc2ccc(C)o2)C3)cc1` is lower in RP-LC retention time: 751 s for the first, 647 s for the second.

Going from `Cc1ccc(-c2c(-c3nn(C)c4ncnc(N5CC[C@H](N6CCCCC6)C5)c34)cnn2C)cc1` to `Cc1ccc2oc(N3CCN(C(=O)c4ccc(-c5noc(C(C)C)n5)cc4)CC3)nc2n1`, the RP-LC retention time rises from 657 s to 685 s.

First: COCC(=O)Nc1ccc(SCc2nnc(-c3ccc4c(c3)OCO4)o2)cc1
Second: COc1ccc2nc3oc(C(=O)N4CCN(Cc5ccc6c(c5)OCO6)CC4)cc3cc2c1
The RP-LC retention time of the first is higher: 789 s for the first, 670 s for the second.

Compared with `COc1ccc(OC)c(S(=O)(=O)N2CCCC(C(=O)NCCO)C2)c1` (centres undefined), `COc1ccc(NC(=O)C2CN(S(=O)(=O)C3CC3)CC23CCCCC3)c(OC)c1` (centres undefined) is higher in RP-LC retention time: 636 s for the first, 961 s for the second.

Going from `O=C(Nc1ccc(F)c(Cl)c1)C1CCN(C(=O)C2Sc3ccccc3NC2=O)CC1` (centres undefined) to `CCn1c(=O)sc2cc(S(=O)(=O)N3CCC(C(=O)NCc4ccccn4)CC3)ccc21`, the RP-LC retention time falls from 826 s to 629 s.

First: CN(C(=O)c1cc(-c2cccs2)n(C2CCS(=O)(=O)C2)n1)C1CCS(=O)(=O)C1 (centres undefined)
Second: O=C(c1ccc(Cl)cc1Cl)N1CCN(c2cc(-c3cccs3)[nH]n2)CC1
The RP-LC retention time of the first is lower: 662 s for the first, 888 s for the second.

First: CCn1cnc(S(=O)(=O)N2CCC(C(=O)Nc3cc(C)ccc3OC)CC2)c1
Second: CCc1nc(-c2csc(S(=O)(=O)N3CCC(C(=O)Nc4cc(C)ccn4)CC3)c2)no1
The RP-LC retention time of the first is lower: 674 s for the first, 749 s for the second.

Going from `Cc1cc(C(=O)N2CCC3(CCC3O)CC2)no1` (centres undefined) to `Cc1cc(-n2nnc(C(=O)N3CCC4(CC3)OCCO4)c2-c2ccncc2)ccc1F`, the RP-LC retention time rises from 636 s to 715 s.

Going from `Cc1ccc(NS(=O)(=O)c2n[nH]c(C)c2C(=O)NCc2ccc(F)cc2F)cc1` to `CCSc1nc2ccc(NS(=O)(=O)c3ccc(F)c(C)c3)cc2s1`, the RP-LC retention time rises from 821 s to 1060 s.

First: COc1ccc(OCc2nnc3sc(-c4ccccn4)nn23)cc1
Second: CC(C)(C)c1ccc(C(=O)Nc2nnc(-c3ccccn3)o2)cc1
The RP-LC retention time of the first is higher: 823 s for the first, 751 s for the second.

First: CCCNC(=O)N1CCC(c2noc(-c3cccnc3)n2)C1 (centres undefined)
Second: CCCc1cc(N2CCN(C(=O)c3cccnc3)CC2)nc2nnc(CC)n12
The RP-LC retention time of the first is higher: 642 s for the first, 580 s for the second.

First: CC(NC(=O)c1csc(-c2ccc(N3CCCC3)nc2)n1)c1ccccn1 (centres undefined)
Second: Cc1nc2cc(N3CCCC(C(=O)NCc4ccccc4)C3)cnc2nc1C (centres undefined)
The RP-LC retention time of the first is lower: 573 s for the first, 705 s for the second.

Going from `CCCCS(=O)(=O)N1CCCC(Cn2c(C3CC3)nc3cccnc32)C1` (centres undefined) to `Cc1nc([C@@H]2CCCN2C(=O)CCc2ccccc2)n[nH]1`, the RP-LC retention time falls from 698 s to 634 s.

First: COc1cc(-c2nnc(/C=C/c3ccccc3)o2)cc(OC)c1OC
Second: Cc1cc(NC(=O)c2ccc3c(c2)nnn3Cc2ccccc2)no1
The RP-LC retention time of the first is higher: 904 s for the first, 819 s for the second.

Compared with `C=CCN1CCN(C(=O)C2=NN(c3ccc(C)cc3)c3ncccc3S2(=O)=O)CC1`, `Cc1ccc2c(c1)N(C)N=C(C(=O)N1CCCCCC1)S2(=O)=O` is higher in RP-LC retention time: 637 s for the first, 839 s for the second.

Going from `O=C(Nc1cccc(F)c1)N1CCN(Cc2nc3cc(Cl)ccc3o2)CC1` to `Cc1ccc(Cl)cc1NS(=O)(=O)c1ccc2onc(C(=O)N3CCCC3)c2c1`, the RP-LC retention time rises from 784 s to 1030 s.

First: Cc1ccc2nc(NC(=O)CSc3ccc(-n4cccn4)nn3)sc2c1
Second: COc1ccc(NC(=O)N2[C@H]3CC[C@@H]2c2cnc(-c4ccc(F)cc4)nc2C3)c(OC)c1
The RP-LC retention time of the first is lower: 844 s for the first, 961 s for the second.

First: Cc1oc(C2CCN(C(=O)C3CCN(S(=O)(=O)N4CCC(C)CC4)CC3)CC2)nc1C(=O)N1CCCC1
Second: O=C(C1CCCN(c2nccnc2Sc2ccccc2)C1)N1CCCCCC1 (centres undefined)
The RP-LC retention time of the first is lower: 861 s for the first, 1120 s for the second.

Compared with `O=C(N[C@H](Cc1ccccc1)C(=O)NCc1cscn1)c1ccccc1`, `O=c1ccc(N2CCCN(S(=O)(=O)c3ccccc3F)CC2)nn1-c1ccc(Cl)cc1` is higher in RP-LC retention time: 738 s for the first, 925 s for the second.

`CN(C)CCNCc1ccc(-c2cccc(Cl)c2)o1` gave an RP-LC retention time of 570 s.
